{"source": "paper PMC10667816", "about": "“A Cell‐Penetrant Peptide Disrupting the Transcription Factor CP2c Complexes Induces Cancer‐Specific Synthetic Lethality” (Advanced Science, 2023)", "key": {"ICR mice": {"test_system": "ICR mice", "test": "Repeated toxicity test of ACP52CGK", "format": "in vivo, mouse", "conditions": "100 mpk intravenously daily for 4 weeks, n = 6/group; brain, heart, liver", "procedure": "(§1) To assess the toxicity of ACP52C, twelve 6‐weeks‐old ICR mice (six males and six females) were divided into three groups, each containing two mice: one group received a saline, another received 100 mg kg^−1 of ACP52C, and the third received 1000 mg kg^−1 of ACP52C. For each group, one mouse was intravenously injected once, and the other one was intravenously injected twice with a four‐day interval between injections. At the time of sacrifice, major organs were analyzed by H&E staining. To assess the repeated toxicity of ACP52CGK, twenty‐four 6‐weeks‐old ICR mice (twelve males and twelve females) were used, dividing them into two groups of six mice each: one group received saline, and the other received 100 mg kg^−1 of ACP52CGK. […] Body weight, water and feed consumption were measured every 3 days after injection. […] Major organs were weighed and analyzed by H&E staining. H&E‐stained tissue sections were analyzed and photographed, and the representative histological images were recorded. […]\nRepeated toxicity test of ACP52CGK were analyzed in ICR mice by intravenous injection of 100 mpk of ACP52CGK daily for 4 weeks (n = 6/group). A-C) Body weight (A), water consumption (B), and food consumption (C) were measured once every 3 days after injection. D-F) Major organ weight (D), CBC (E), and blood chemistry (F) were measured after sacrifice. Data are expressed as means ± SD in (B-F). […]"}, "[1]": {"test_system": "diethylnitrosamine (DEN)‐induced orthotopic liver cancer", "test": "DEN‐induced orthotopic liver cancer mouse model", "format": "in vivo", "conditions": "administered at five‐day intervals, C57BL/6 mice"}, "[2]": {"test_system": "ACP52C‐resistant cancer cell lines", "test": "Growth inhibition of resistant cells with CASP2 inhibition", "format": "cell-based, human", "conditions": "combined with CASP2 inhibiting peptide Ac‐VDVAD‐CHO (10 µM)", "description": "(§2) Various cell lines were treated with peptides, either alone or in combination with the CASP2 inhibitor (Ac‐VDVAD‐CHO; Enzo ALX‐260‐058‐M001) at various concentrations for 4 days. Cell viability was assessed on day 2 or day 4 using MTT (3‐(4,5‐dimethylthiazol‐2‐yl)‐2,5‐diphenyltetrazolium bromide; Sigma–Aldrich, M2128) assay. In brief, fresh cells were seeded in flat‐bottomed 96‐well tissue culture plates at appropriate concentrations for each cell line per well using complete culture medium. The cells were incubated in 100 µL of culture medium containing various concentration of chemicals or peptides at 37 °C for 0 to 96 h. A solution of MTT (5 mg mL^−1) was added to the culture medium, and the cells were further incubated at 37 °C for an additional 3 h. The MTT medium was then removed, and the formazan crystals were dissolved in DMSO (100 µL per well). The formazan concentration was measured spectrophotometrically at 490 nm using a Varioskan Flash Spectral Scanning Multimode Reader (Thermo Scientific Korea). Nonlinear regression curves for growth inhibition and GI50 values for each cell line were estimated from independent replicates using the Prism (version 6) software (GraphPad Software Inc.)"}, "[3]": {"test_system": "lung cancer cells and some blood cancer cells", "test": "MTT growth inhibition in ACP52C‐resistant cells", "format": "cell-based, human", "conditions": "concentrations up to 1 mM", "description": "as §2"}, "[4]": {"test_system": "normal male and female mice", "test": "In vivo toxicity test of ACP52C", "design": "species or system mouse", "conditions": "ICR mice, 100 or 1000 mg kg^−1 intravenously, once or twice with four‐day interval; H&E of major organs", "procedure": "as §1\nA-C) Anticancer effects of ACP52C in xenograft model mice. […] Data are expressed as means ± SD, and the number […]\neffective tumor targeting. […] The estimated residual levels of Cy5-ACP52C in the body over time were determined by quantifying the fluorescence intensity of images (right). RL50 represents the required time for a 50% retention of fluorescence level. (F) Bright field and fluorescence images of the […]"}, "CP2c complexes": {"target": "CP2c complexes (Homo sapiens, UniProt Q12800)", "sequence (Q12800 whole entry, one chain of several)": "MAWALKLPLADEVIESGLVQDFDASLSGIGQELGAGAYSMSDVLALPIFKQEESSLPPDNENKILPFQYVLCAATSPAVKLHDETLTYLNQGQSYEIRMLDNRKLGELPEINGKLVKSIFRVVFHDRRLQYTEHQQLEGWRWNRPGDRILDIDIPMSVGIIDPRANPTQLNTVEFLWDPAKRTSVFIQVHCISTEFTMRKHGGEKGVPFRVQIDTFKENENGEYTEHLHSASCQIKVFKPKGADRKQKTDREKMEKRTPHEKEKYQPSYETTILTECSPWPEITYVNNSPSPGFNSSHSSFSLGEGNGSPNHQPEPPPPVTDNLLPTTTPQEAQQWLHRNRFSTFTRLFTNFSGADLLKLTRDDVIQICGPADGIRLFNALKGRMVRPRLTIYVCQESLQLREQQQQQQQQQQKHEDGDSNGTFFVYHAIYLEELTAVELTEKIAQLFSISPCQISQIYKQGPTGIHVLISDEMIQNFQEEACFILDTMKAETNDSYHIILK", "test": "In vitro IP and pulldown assays of CP2c complexes", "format": "biochemical", "conditions": "regardless of the presence of probe DNA", "procedure": "Cells were lysed with lysis buffer (50 mM Tris‐HCl, pH 7.4, 150 mM NaCl, 1 mM EDTA, 0.1% triton X‐100, and 1 mM PMSF) with freshly added 1 mM DTT and a protease inhibitor cocktail. Input samples (10% of whole lysate) were saved from each lysate for WB analysis. For immunoprecipitation, precleared extracts were incubated overnight at 4 °C with 10 µL Protein A/G agarose beads, pre‐incubated with 2 µg of the primary antibodies (Table S4, Supporting Information). The immune complexes were washed 3 times with lysis buffer, and bound proteins were eluted with 2X bed volume of 0.2 M glycine buffer, followed by neutralization with an equal volume of 1 M Tris‐HCl, pH 8.0. For Flag tag immunoprecipitation, precleared extracts were incubated with 2 µL of Flag‐M2 beads (Sigma–Aldrich, A2220) by rotating overnight at 4 °C. The immune complexes were washed 3 times with lysis buffer, bound proteins were eluted with 100 µg mL^−1 Flag peptide (Sigma–Aldrich, F4799). Precipitated proteins were analyzed using western blot.\nBiotinylated‐DNA fragments or ‐peptides and GST‐fused CP2c, whole‐ or nuclear‐ extracts of MDA‐MB‐231 cells were used for the analyze the interaction of peptide or DNA with CP2c. Nuclear extracts were extracted by the method described elsewhere.^[ [14] ^] […] The radioactivity of the eluted probe was measured by scintillation counting. […]"}}, "note": "*1 amine or outer side, *2 acyl side, *3 side chain or, on linkers, in order; H or OH if unused. Where a SMILES comes first, the peptide text is derived from it. Side-chain parts run from the residue outwards. The star is where a group is joined. γGlu = O=C(O)[C@H](CCC(=O)[*:2])N[*:1]; Palmitoyl = CCCCCCCCCCCCCCCC(=O)*"}
{"smiles": "CCCCCCCCCCCCCCCC(=O)N[C@@H](CCC(=O)NCCCC[C@H](NC(=O)CNC(=O)CNC(=O)[C@@H]1CCCN1C(=O)[C@H](CCCNC(=N)N)NC(=O)[C@H](CCC(N)=O)NC(=O)[C@@H]1CCCN1C(=O)[C@H](Cc1ccc(O)cc1)NC(=O)[C@H](CC(N)=O)NC(C)=O)C(=O)NCC(=O)NCC(=O)N[C@@H](CS)C(=O)N[C@@H](CCCNC(=N)N)C(=O)NCC(=O)N[C@@H](CC(=O)O)C(=O)N[C@@H](CCCCN)C(=O)NCC(=O)N1CCC[C@H]1C(=O)N[C@@H](CC(=O)O)C(=O)N[C@@H](CS)C(N)=O)C(=O)O", "note": "[ACP52CGK] (Ac-NYPQRPGGK([γGlu-Palmitoyl])GGCRGDKGPDC-NH2)", "values": [{"measurement": "adverse effects in normal organs", "setting": "ICR mice", "result": "did not induce any adverse effects"}, {"measurement": "anti‐tumor efficacy", "setting": "[1]", "result": "remarkable anti‐tumor efficacy"}]}
{"smiles": "CC(=O)N[C@@H](CC(N)=O)C(=O)N[C@@H](Cc1ccc(O)cc1)C(=O)N1CCC[C@H]1C(=O)N[C@@H](CCC(N)=O)C(=O)N[C@@H](CCCNC(=N)N)C(=O)N1CCC[C@H]1C(=O)N[C@@H](CS)C(=O)N[C@@H](CCCNC(=N)N)C(=O)NCC(=O)N[C@@H](CC(=O)O)C(=O)N[C@@H](CCCCN)C(=O)NCC(=O)N1CCC[C@H]1C(=O)N[C@@H](CC(=O)O)C(=O)N[C@@H](CS)C(N)=O", "note": "[ACP52C] (Ac-NYPQRPCRGDKGPDC-NH2)", "values": [{"measurement": "sensitization by combined treatment", "setting": "[2]", "result": "sensitized ACP52C‐resistant cancer cell lines"}, {"measurement": "growth inhibition", "setting": "[3]", "result": "resistance"}, {"measurement": "adverse side effects", "setting": "[4]", "result": "did not exhibit any adverse side effects"}]}
{"smiles": "CCOc1ccccc1C1CC(=O)Nc2cc3c(cc21)OCO3", "note": "(stereo not drawn) [FQI1, Factor Quinolinone Inhibitor 1, reference compound]", "values": [{"measurement": "dissociation of CP2c complexes", "setting": "CP2c complexes", "result": "only slight perturbation of CP2c complexes"}]}
